Values after ≈ are worked out from the molar mass of the structure shown. Where two headings read alike, the source gives them in different places.
What was measured:
Na^+,K^+-ATPase = molecular target: T1, Na^+,K^+-ATPase (Sus scrofa, UniProt P05024); experiment: ATP hydrolysis assay, Na+,K+-ATPase; format: biochemical, porcine
T1 construct: from tissue; host or cells: porcine kidney (gift of Natalya Fedosova, Aarhus University)
Protocol: (§1) Rabbit sarcoplasmic reticulum membranes containing sarcoplasmic endoplasmic reticulum Ca^2+-ATPase (SERCA) were kindly provided by Claus E. Olesen and Jesper V. Møller, Aarhus University, and prepared as described in reference. Porcine kidney Na^+,K^+-ATPase was kindly provided by Natalya Fedosova, Aarhus University, and prepared as described in reference.
(§2) The protein activity levels were determined by measuring the amount of free phosphate produced from the ATP hydrolysis reaction. The assay was performed as described in reference. Each well contained ATPase enzyme, 2 μl of inhibitor (usually in the range of 333 to 0.01 μM) dissolved in dimethyl sulfoxide (DMSO) (Duchefa Biochemie, Haarlem, The Netherlands), and an assay buffer dependent on the enzyme for a final volume of 60 μl. Possible compound precipitation in the assay buffer was monitored using a Nephelostar plate reader measuring turbidity, and the information was taken into account in the IC50 determination. Pma1 assay buffer consisted of 20 mM 3-(N-morpholino)propanesulfonic acid (MOPS)–NaOH, pH 6.5 or 7.0, 8 mM MgSO4, 50 mM KNO3 (a vacuolar ATPase inhibitor), 25 mM sodium azide (a mitochondrial ATPase inhibitor), and 250 μM sodium molybdate (an acid phosphatase inhibitor). SERCA buffer consisted of 9 mM MOPS-NaOH, pH 7, 2.7 mM MgCl2, 90 μM CaCl2, and 72 mM KCl. Na^+,K^+-ATPase buffer consisted of 30 mM MOPS-NaOH, pH 7, 40 mM NaCl, 4 mM MgCl2, and 20 mM KCl. The concentration of protein was adjusted to obtain a signal of the optical density at 860 nm (OD860) of between 0.5 and 1.0 in the untreated samples (for all Pma1 batches, ∼1 to 2 μg/well; for SERCA and Na^+,K^+-ATPase, ∼0.1 to 0.2 μg/well).

[1] = tested on: Aspergillus fumigatus ATCC 13073; experiment: microbe, parasite or virus in culture; details: for MIC: Aspergillus fumigatus
Protocol: (§3) The following fungal isolates were used: Saccharomyces cerevisiae ATCC 9763, Candida albicans SC5314, Candida parapsilosis ATCC 22019, Candida tropicalis Ct016, Candida glabrata ATCC 90030, Aspergillus fumigatus ATCC 13073, and Aspergillus flavus ATCC MYA-1005. Frozen stocks of yeast isolates in glycerol (final concentration, 20%) were prepared by growing the cells to log phase in YPD medium at 30°C and 150 rpm. Frozen stocks of mold spores were prepared by harvesting spores from 7-day-old potato glucose agar plates in phosphate-buffered saline, 0.1% Tween 80 and aliquoting these spores in the presence of glycerol (final concentration, 20%). The cells were stored at −80°C. The cells or spores were thawed and diluted to a final concentration of 0.5 × 10^5 to 2.5 × 10^5 CFU/ml in sterile Milli-Q H2O. […] The plate was incubated for 20 to 24 h at 34°C (72 h for molds), and the OD490 was measured on a Victor X5 (PerkinElmer) plate reader. Mold growth assay plates were also visually inspected. The MIC was defined as the lowest concentration inhibiting the visual growth of the microorganism.

Candida albicans SC5314 = experiment: microbe, parasite or virus in culture; details: for MIC: Candida albicans
Protocol: as §3

[2] = tested on: Candida glabrata ATCC 90030; experiment: microbe, parasite or virus in culture; details: for MIC: Nakaseomyces glabratus
Protocol: as §3

[3] = tested on: Candida parapsilosis ATCC 22019; experiment: microbe, parasite or virus in culture; details: for MIC: Lodderomyces parapsilosis
Protocol: as §3

Candida tropicalis Ct016 = experiment: microbe, parasite or virus in culture; details: for MIC: Candida tropicalis
Protocol: as §3

Ca^2+-ATPase (SERCA1a) = Ca^2+-ATPase (SERCA1a) (Oryctolagus cuniculus, UniProt P04191); experiment: ATP hydrolysis assay, SERCA; format: biochemical, rabbit
Protocol: as §1, §2

[4] = Table 1, ATP hydrolysis at pH 7.4 (compounds marked b), read-out: IC50 Na^+,K^+-ATPase
[5] = ATCC13073, 72 h, pH 7, read-out: MIC A. fumigatus
[6] = SC5314, pH 7, read-out: MIC C. albicans
[7] = ATCC90030, pH 7, read-out: MIC C. glabrata
[8] = ATCC22019, pH 7, read-out: MIC C. parapsilosis
[9] = CT016, pH 7, read-out: MIC C. tropicalis
[10] = Table 2, pH 7, n = 2, porcine kidney, read-out: IC50 for ATP hydrolysis, Na^+,K^+-ATPase
[11] = ATCC13073, read-out: MIC for growth inhibition, A. fumigatus
[12] = SC5314, read-out: Growth inhibition MIC, C. albicans in RPMI
[13] = SC5314, read-out: MIC for growth inhibition, C. albicans
[14] = ATCC90030, read-out: MIC for growth inhibition, C. glabrata
[15] = ATCC22019, read-out: MIC for growth inhibition, C. parapsilosis
[16] = CT016, read-out: MIC for growth inhibition, C. tropicalis
[17] = Table 2, pH 7, n = 2, rabbit SERCA1a, read-out: IC50 for ATP hydrolysis, SERCA
[18] = Table 1, ATP hydrolysis at pH 7, read-out: IC50 Na^+,K^+-ATPase

Ca^2+-ATPase (SERCA1a), sequence (P04191 1-994 isoform P04191-2): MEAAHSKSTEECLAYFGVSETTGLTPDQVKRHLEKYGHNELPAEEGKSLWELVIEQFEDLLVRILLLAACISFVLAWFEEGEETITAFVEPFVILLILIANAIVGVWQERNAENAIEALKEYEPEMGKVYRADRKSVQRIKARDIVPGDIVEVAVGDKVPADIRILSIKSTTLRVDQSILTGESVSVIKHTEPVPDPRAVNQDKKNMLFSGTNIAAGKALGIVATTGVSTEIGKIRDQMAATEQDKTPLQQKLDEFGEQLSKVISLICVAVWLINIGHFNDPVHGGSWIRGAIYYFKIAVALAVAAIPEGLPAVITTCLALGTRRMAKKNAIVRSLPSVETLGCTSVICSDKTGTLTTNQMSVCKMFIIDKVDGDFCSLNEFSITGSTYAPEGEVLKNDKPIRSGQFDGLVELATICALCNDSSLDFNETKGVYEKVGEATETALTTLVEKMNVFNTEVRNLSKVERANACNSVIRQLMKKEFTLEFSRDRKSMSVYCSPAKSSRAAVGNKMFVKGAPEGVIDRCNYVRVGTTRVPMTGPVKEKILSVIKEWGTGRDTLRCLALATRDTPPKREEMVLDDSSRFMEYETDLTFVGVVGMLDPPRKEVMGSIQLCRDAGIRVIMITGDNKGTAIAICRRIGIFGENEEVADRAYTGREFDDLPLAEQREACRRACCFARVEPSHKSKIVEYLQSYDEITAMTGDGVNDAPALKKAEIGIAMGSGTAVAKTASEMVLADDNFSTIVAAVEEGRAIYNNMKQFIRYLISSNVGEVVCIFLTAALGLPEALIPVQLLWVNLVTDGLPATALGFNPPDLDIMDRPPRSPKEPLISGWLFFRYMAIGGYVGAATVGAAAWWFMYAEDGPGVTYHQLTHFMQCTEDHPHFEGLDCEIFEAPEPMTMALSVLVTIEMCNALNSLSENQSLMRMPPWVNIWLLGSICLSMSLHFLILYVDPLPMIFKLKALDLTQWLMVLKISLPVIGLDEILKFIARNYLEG

SMILES	IC50 (Na^+,K^+-ATPase; [4])	MIC [1, 5]	MIC (Candida albicans SC5314; [6])	MIC [2, 7]	MIC [3, 8]	MIC (Candida tropicalis Ct016; [9])	IC50 (Na^+,K^+-ATPase; [10])	IC50 (Ca^2+-ATPase (SERCA1a))	MIC [1, 11]	MIC (Candida albicans SC5314; [12])	MIC (Candida albicans SC5314; [13])	MIC [2, 14]	MIC [3, 15]	MIC (Candida tropicalis Ct016; [16])	IC50 (Na^+,K^+-ATPase; [18])	also measured
Oc1cccc(Nc2nc(-c3ccc(Cl)c(Cl)c3)cs2)c1 [Compound 7]	5.8 ± 0.8 µM	> 150 µM	7.3 µM (≈ 2.46 µg/mL)	4.7 µM (≈ 1.58 µg/mL)	8.2 µM (≈ 2.77 µg/mL)	26 µM (≈ 8.77 µg/mL)										
CN(C)CCCNc1ncnc2c1sc1nc(-c3ccccc3)c3c(c12)CCC3 [Compound 18]							85.7 ± 26.6 µM	69.5 ± 6.9 µM	75 µM (≈ 30.3 µg/mL)	75 µM (≈ 30.3 µg/mL)	75 µM (≈ 30.3 µg/mL)	41 µM (≈ 16.5 µg/mL)	24 µM (≈ 9.69 µg/mL)	58 µM (≈ 23.4 µg/mL)		
[O]=[V]([O-])([O-])[O-] [Vanadate, reference compound]							0.006 ± 0.001 µM									IC50 (Ca^2+-ATPase (SERCA1a); [17]): 10.4 ± 2.4 µM; MIC for growth inhibition, A. fumigatus ([1]; Table 3): >750 µM; MIC for growth inhibition, C. albicans (Candida albicans SC5314; Table 3): >750 µM; MIC for growth inhibition, C. glabrata ([2]; Table 3): >750 µM; MIC for growth inhibition, C. parapsilosis ([3]; Table 3): >750 µM; MIC for growth inhibition, C. tropicalis (Candida tropicalis Ct016; Table 3): >750 µM
O=C1/C(=C/c2ccc(-c3cc(Cl)ccc3Cl)o2)C=C(c2ccccc2)N1c1ccccc1O [Compound 1]	13.2 ± 0.91 µM	> 150 µM	> 150 µM	> 150 µM	> 150 µM	> 150 µM		17.5 ± 4.7 µM								
CCCCc1nc2sc3c(NCCCN(C)C)ncnc3c2c2c1CCCC2 [Compound 14]		75 µM (≈ 29.8 µg/mL)	36 µM (≈ 14.3 µg/mL)	41 µM (≈ 16.3 µg/mL)	24 µM (≈ 9.54 µg/mL)	24 µM (≈ 9.54 µg/mL)		42 ± 8 µM	75 µM (≈ 29.8 µg/mL)	36 µM (≈ 14.3 µg/mL)	36 µM (≈ 14.3 µg/mL)	41 µM (≈ 16.3 µg/mL)	24 µM (≈ 9.54 µg/mL)	24 µM (≈ 9.54 µg/mL)	18.4 ± 2.1 µM	
CCCCc1nc2sc3c(NCCCN(C)C)nc(SC)nc3c2c2c1CCC2 [Compound 15]							4.1 ± 0.6 µM		15 µM (≈ 6.44 µg/mL)	4.8 µM (≈ 2.06 µg/mL)	4.8 µM (≈ 2.06 µg/mL)	15 µM (≈ 6.44 µg/mL)	15 µM (≈ 6.44 µg/mL)	47 µM (≈ 20.2 µg/mL)		IC50 (Ca^2+-ATPase (SERCA1a); [17]): 4.5 µM
CCc1nc2sc3c(NCCCN(C)C)ncnc3c2c2c1CCCC2 [Compound 17]							> 333 µM	> 333 µM	> 150 µM	150 µM (≈ 55.4 µg/mL)	150 µM (≈ 55.4 µg/mL)	150 µM (≈ 55.4 µg/mL)	150 µM (≈ 55.4 µg/mL)	150 µM (≈ 55.4 µg/mL)		
COc1cccc(Nc2nc(Cl)nc(Nc3cccc(OC)c3)n2)c1 [Compound 9]		> 150 µM	> 150 µM	> 150 µM	> 150 µM	> 150 µM		> 105 µM							> 105 µM	
COc1ccc(Cn2c(SCc3cc(C)ccc3C)nc3cc(OC)c(OC)cc3c2=N)cc1 [Compound 12]		> 150 µM	12 µM (≈ 5.71 µg/mL)	> 150 µM	> 150 µM	> 150 µM									58.7 ± 40.2 µM	
CC1CCCCN1CC(O)Cn1c(-c2ccccc2)c(-c2ccccc2)c2ccc3ccccc3c21 (centres unmarked) [Compound 4]	15 ± 7.2 µM	> 38 µM	13 µM (≈ 6.17 µg/mL)	> 38 µM	> 38 µM	12 µM (≈ 5.7 µg/mL)		4.1 ± 0.2 µM								

Source: PMC5487681, “Identification of Antifungal H^+-ATPase Inhibitors with Effect on Plasma Membrane Potential” (Antimicrobial Agents and Chemotherapy, 2017)
